Measured values reported in paper PMC5584945, “Evaluation of robenidine analog NCL195 as a novel broad-spectrum antibacterial agent” (PLoS ONE, 2017).
Converted amounts (≈) assume the structure as drawn.

Tested on: vancomycin-resistant enterococci (VRE)
Test: MIC, broth micro-dilution (CLSI)
Format: cell-based, enterococci (porcine isolates)
[1] = Enterococcus, VRE, S3 Table isolates, absence of FBS

CCCCCCCCCC(=O)N[C@@H](Cc1c[nH]c2ccccc12)C(=O)N[C@H](CC(N)=O)C(=O)N[C@@H](CC(=O)O)C(=O)N[C@@H]1C(=O)NCC(=O)N[C@@H](CCCN)C(=O)N[C@@H](CC(=O)O)C(=O)N[C@H](C)C(=O)N[C@@H](CC(=O)O)C(=O)NCC(=O)N[C@H](CO)C(=O)N[C@@H]([C@H](C)CC(=O)O)C(=O)N[C@@H](CC(=O)c2ccccc2N)C(=O)O[C@@H]1C [Daptomycin, daptomycin] showed an MIC90 (Enterococcus, VRE, 20 isolates) of 2 µg/mL (≈ 1.23 µM), an MIC50 [1] of 1 µg/mL (≈ 0.617 µM) and an MIC90 [1] of 2 µg/mL (≈ 1.23 µM). The MIC (Enterococcus, VRE, VRE 1 (49 FR), absence of FBS) was 1 µg/mL (≈ 0.617 µM), the MIC (Enterococcus, VRE, VRE 2 (53 FR), absence of FBS) was 2 µg/mL (≈ 1.23 µM) and the MIC (Enterococcus, VRE, VRE 3 (55 FR), absence of FBS) was 2 µg/mL (≈ 1.23 µM). For the same compound, the MIC (Enterococcus, VRE, VRE 4 (57 FR), absence of FBS) was 2 µg/mL (≈ 1.23 µM), the MIC (Enterococcus, VRE, VRE5 (58 FR), absence of FBS) was 2 µg/mL (≈ 1.23 µM) and the MIC (Enterococcus, VRE, VRE 6 (59 FR), absence of FBS) was 2 µg/mL (≈ 1.23 µM). The MIC (Enterococcus, VRE, VRE 7 (270 G), absence of FBS) was 1 µg/mL (≈ 0.617 µM), the MIC (Enterococcus, VRE, VRE 8 (277 G), absence of FBS) was 0.5 µg/mL (≈ 0.309 µM) and the MIC (Enterococcus, VRE, VRE 9 (61 FR), absence of FBS) was 1 µg/mL (≈ 0.617 µM). For the same compound, the MIC (Enterococcus, VRE, VRE 10 (62 FR), absence of FBS) was 2 µg/mL (≈ 1.23 µM), the MIC (Enterococcus, VRE, VRE 11 (284 G), absence of FBS) was 0.5 µg/mL (≈ 0.309 µM) and the MIC (Enterococcus, VRE, VRE 12 (290 G), absence of FBS) was 1 µg/mL (≈ 0.617 µM). For the same compound, the MIC (Enterococcus, VRE, VRE 13 (251 G), absence of FBS) was 0.5 µg/mL (≈ 0.309 µM), the MIC (Enterococcus, VRE, VRE 14 (252 G), absence of FBS) was 1 µg/mL (≈ 0.617 µM) and the MIC (Enterococcus, VRE, VRE 15 (63 FR), absence of FBS) was 1 µg/mL (≈ 0.617 µM). For the same compound, the MIC (Enterococcus, VRE, VRE 16 (60 FR), absence of FBS) was 2 µg/mL (≈ 1.23 µM), the MIC (Enterococcus, VRE, VRE 17 (45 FR), absence of FBS) was 2 µg/mL (≈ 1.23 µM) and the MIC (Enterococcus, VRE, VRE 18 (69 W), absence of FBS) was 1 µg/mL (≈ 0.617 µM). It also gave an MIC (Enterococcus, VRE, VRE 19 (70 W), absence of FBS) of 0.5 µg/mL (≈ 0.309 µM), an MIC (Enterococcus, VRE, VRE 20 (78 W), absence of FBS) of 2 µg/mL (≈ 1.23 µM) and an MIC range (S3 Table isolates, absence of FBS) of 0.5 to 2 µg/mL.
